Results as given in patent US12707555B2, “Low-temperature dielectric barrier discharge devices” (The Trustees of Princeton University, priority 2022, dated 2026).

What was measured:
[1] = test system: E. coli AMS 198 (ATCC-11229); test: Quantitative disinfection of bacteria dried on glass coverslips (CFU count, log reduction); type: cell-based; conditions: 3% H2O2 alone, flex-DBD off; R=0.947
Procedure: (§1) To quantify disinfection, bacteria (E. coli 10-beta, Standard E. coli AMS 198 or OP50-GFP) were inoculated on glass coverslips (25 mm diameter). Four droplets of 5 μl each (20 μl) of the bacterial culture (starting concentration 10^8 CFU/ml) were placed onto each coverslip and allowed to dry for approximately 40 min. The slides with dry bacterial culture were then placed onto the flex-DBD with the inoculated side directly in contact with the discharge. The coverslips were treated for 10, 30, 90, and 270 s. At the end of the treatment time, the treated coverslip was placed in a centrifuge tube with 7.5 ml LB, enough to cover the coverslip. The tubes were vortexed on a medium setting for 20 s to recover the bacteria from the treated surface but not damage the cell membrane. The resulting bacterial suspension was spread on LB-agar plates and incubated for 24 h. Cultures were then counted and the number used to calculate the logarithmic reductions of bacterial concentration. […] Pieces of material were disinfected by soaking for 5 min in a 70% solution of isopropyl alcohol then dried thoroughly for at least 30 min. […] An inoculated glass coverslip was placed on top of the solution with the bacteria in contact with the solution. […] Statistical significance between pairs of treatments was evaluated using repeated measures ANOVA.

E. coli 10-beta = test: as above; type: cell-based; conditions: 3% H2O2 alone, flex-DBD off; R=0.97
Procedure: as §1

bacterial load = conditions: cited from earlier work
E. coli = test: Disinfection of inoculated coverslips with flex-DBD in conjunction with 3% H2O2 solution (strain not stated at the result); type: cell-based; conditions: H2O2 with only UV radiation from flex-DBD (UV filter); after the first 30 s
Procedure: Pieces of material were disinfected by soaking for 5 min in a 70% solution of isopropyl alcohol then dried thoroughly for at least 30 min. […] An inoculated glass coverslip was placed on top of the solution with the bacteria in contact with the solution. At the end of each treatment, the coverslip and the cloth were dropped into a centrifuge tube with 7.5 ml of LB solution. The same recovery and plating procedure was used in all experiments. […] To block all the output from the plasma except light, a thin film filter transparent down to 190 nm was placed between the DBD and H2O2. […] When possible, ImageJ (1.53c) software was used to count CFUs, otherwise the counting was done visually. […] All the experiments were performed in triplicates of samples and plates. Statistical significance between pairs of treatments was evaluated using repeated measures ANOVA.

OO [H2O2, hydrogen peroxide]
time for 1 log10 reduction, D [1]: 135±5 s
time for 1 log10 reduction, D (E. coli 10-beta): 139±5 s
reduction (bacterial load; H2O2 droplets added into a corona discharge): 6 log10
reduction in the bacterial load (bacterial load; H2O2 vapor added to the plasma effluent): greater than 6 log10
time for 1 log10 reduction, D (E. coli): > 250 s
